{"source": "patent US20230099204A1", "about": "“PHARMACEUTICAL COMPOSITION FOR PREVENTION OR TREATMENT OF CANCER IN WHICH KRAS MUTATION AND ACTIVATED RON ARE PRESENT” (WELLMARKER BIO CO., LTD., priority 2020, published 2023)", "key": {"SNUC2A": {"tested_on": "SNUC2A", "assay": "MTS assay, cytotoxicity on colorectal cancer cell line SNUC2A", "format": "cell-based", "conditions": "RON mutation negative, KRAS G12D, 72 hours", "experimental": "(§1) MTS assay was performed to compare cytotoxicity of the compounds of Example 1, Example 2, Example 3, Example 4, Example 5, Example 6, and positive control 1 on a colorectal cancer cell line, and a cell death rate of the colorectal cancer cell line was analyzed to compare anticancer activity of the compounds.\n(§2) The MTS assay was performed by seeding each colorectal cell line in a 96-well plate at 1,000 cells per well, and after 24 hours, performing treatment with the compounds of Examples 1 to 6 and positive control 1 at various concentrations (0.000001 μM to 10 μM) in 100 μL of 10% FBS-RPMI medium (WELGENE Inc.) per well. The cells were incubated for 72 hours. Then, 20 μL of MTS solution (Promega) was added thereto, and the cells were incubated for 2 hours. Then, the absorbance was measured at 490 nm. The IC50 values for the compounds of Examples 1 to 6 and positive control 1 were calculated using GraphPad Prism™ 5 to investigate cytotoxicity."}, "T84 [1]": {"tested_on": "T84", "assay": "MTS assay, cytotoxicity on colorectal cancer cell line T84", "format": "cell-based", "conditions": "Homo sapiens, RON Δ165, KRAS G13D, 72 hours", "experimental": "as §1, §2"}, "SNU-C2A": {"tested_on": "SNU-C2A", "assay": "Cell death induction, trypan blue cell counting, SNU-C2A", "format": "cell-based", "conditions": "SNUC2A with inactive RON; 1 μM; 48 hours; FIG. 1", "experimental": "(§3) Based on the results above, to identify the cell death-inducing ability of the compounds of Example 1 and positive control 1, which are representative materials, preparation was performed by seeding respective colorectal cancer cell lines SNU-[…], HCT8, T84, and SW620 onto 60-mm plates at 3×10^5 cells, and then incubation was performed for 24 hours. Thereafter, treatment with each of Example 1 and positive control 1 was performed at 1μM and incubation was performed for 48 hours. After 48 hours, the cells and cell suspensions were collected by treatment with trypsin, resuspended in 1× PBS and stained using a trypan blue solution (Sigma, cat# T8154). The stained cells were counted using a hemocytometer. Cell counting was repeated, and the mean and the standard deviation were calculated."}, "DLD1": {"tested_on": "DLD1", "assay": "MTS assay, cytotoxicity on colorectal cancer cell line DLD1", "format": "cell-based", "conditions": "Homo sapiens, DLD-1, RON wt, KRAS G13D, 72 hours", "experimental": "as §1, §2"}, "SW480": {"tested_on": "SW480", "assay": "MTS assay, cytotoxicity on colorectal cancer cell line SW480", "format": "cell-based", "conditions": "Homo sapiens, RON Δ155, KRAS G12V, 72 hours", "experimental": "as §1, §2"}, "[2]": {"tested_on": "colorectal cancer patient-derived cell lines", "assay": "Cell death induction (cleaved caspase 3 staining) in colorectal cancer patient-derived cell lines", "format": "cell-based, human", "conditions": "1 μM, FIG. 4"}, "[3]": {"tested_on": "HCT8 (KRAS G13D/pTyr-wtRON(+))", "assay": "Cell line HCT8-transplanted mouse model", "format": "in vivo, BALB/c nude mice", "experimental": "5-Week-old female BALB/c nude mice were purchased and acclimatized for 1 week. Then, human colorectal cancer patient-derived cell line SW620 (KRAS\nG12V/mRON Δ155) at 5×10^6 cells/mouse was injected subcutaneously (100 μL) into the right dorsal side of the mice. The compound of Example 1 was orally administered when the tumor reached a size of about 100 mm^3. The drug was administered once a day for 4 weeks, and tumor size and mouse body weight were measured twice a week. After completion of the drug administration, the experimental animals were euthanized, and then the tumors were extracted and weighed for comparative analysis.\nA portion of the extracted tumor tissue was fixed in 10% formalin and processed into a paraffin block. Then, the block was made into sections. Staining of the slide was performed through immunochemical staining. Another portion of the extracted tumor tissue was subjected to lysis, and then Western blotting was used to identify changes in expression of respective proteins.\nThe experiment was conducted in the same method as the procedure of Experimental Example 3, except that human colorectal cancer patient-derived cell line HCT8 (KRAS G13D/pTyr-wtRON(+)) was used in place of the human colorectal cancer patient-derived cell line SW620 (KRAS G12V/mRON Δ155), and the respective compounds of Example 1, positive control 1, and positive control 2 were administered."}, "SW620": {"tested_on": "SW620", "assay": "Cell death induction, trypan blue cell counting, SW620", "format": "cell-based, human", "conditions": "1 μM, 48 hours", "experimental": "as §3, with “48 hours. In addition, preparation was performed by seeding the cell line SW620 onto a 60-mm plate at 3×10^5 cells, and then incubation was performed for 24 hours. Thereafter, treatment with each of Example 1, positive control 1, positive control 2, and positive control 3 was performed at 1 μM. After 48” for “48 hours. After 48”"}, "[4]": {"tested_on": "HCT15 (KRAS G13D/mRON Δ160)", "assay": "Cell line HCT15-transplanted mouse model", "format": "in vivo, BALB/c nude mice", "experimental": "5-Week-old female BALB/c nude mice were purchased and acclimatized for 1 week. Then, human colorectal cancer patient-derived cell line HCT15 (KRAS G13D/mRON Δ160) at 5×10^6 cells/mouse was injected subcutaneously (100 μL) into the right dorsal side of the mice. The compound of Example 1 was orally administered when the tumor reached a size of about 100 mm^3 The drug was administered once a day for 4 weeks, and tumor size and mouse body weight were measured twice a week.\nAfter completion of the drug administration, the tumor tissues were analyzed."}, "HCT8 [5]": {"tested_on": "HCT8", "assay": "MTS assay, cytotoxicity on colorectal cancer cell line HCT8", "format": "cell-based", "conditions": "Homo sapiens, HCT-8, RON wt, KRAS G13D, 72 hours", "experimental": "as §1, §2"}, "HCT15": {"tested_on": "HCT15", "assay": "MTS assay, cytotoxicity on colorectal cancer cell line HCT15", "format": "cell-based", "conditions": "Homo sapiens, HCT-15, RON Δ160, KRAS G13D, 72 hours", "experimental": "as §1, §2"}, "T84 [6]": {"tested_on": "T84", "assay": "Cell death induction, trypan blue cell counting, T84", "format": "cell-based", "conditions": "T84 with a RON mutation; 1 μM; 48 hours; FIG. 1", "experimental": "as §3"}, "HCT8 [7]": {"tested_on": "HCT8", "assay": "Cell death induction, trypan blue cell counting, HCT8", "format": "cell-based, human", "conditions": "HCT8 (pTyr-wtRON); 1 μM; 48 hours; FIG. 1", "experimental": "as §3"}}, "data": [{"smiles": "CCOc1ccn(-c2ccc(F)cc2)c(=O)c1C(=O)Nc1ccc(Oc2ccnc3cc(-c4ccc(CN5CCOCC5)cn4)sc23)c(F)c1.Cl", "note": "[Example 1, 4-ethoxy-N-[3-fluoro-4-({2-[5-(morpholinomethyl)pyridine-2-yl]thieno[3,2-b]pyridine-7-yl}oxy)phenyl]-1-(4-fluorophenyl)-2-oxo-1,2-dihydropyridine-3-carboxamide hydrochloride]", "values": [{"measurement": "IC50", "setting": "SNUC2A", "result": 5.78, "unit": "µM"}, {"measurement": "IC50", "setting": "T84 [1]", "result": 0.35, "unit": "µM"}, {"measurement": "cell death induction efficacy", "setting": "SNU-C2A", "result": "no response"}, {"measurement": "IC50", "setting": "DLD1", "result": 0.24, "unit": "µM"}, {"measurement": "IC50", "setting": "SW480", "result": 0.34, "unit": "µM"}, {"measurement": "cell death induction efficacy", "setting": "[2]; patient-derived cell line expressing a RON mutation or pTyr-wtRON", "result": "exhibited cell death induction efficacy"}, {"measurement": "cell death induction efficacy", "setting": "[2]; patient-derived cell line with inactive RON", "result": "did not exhibit cell death induction efficacy"}, {"measurement": "Tumor growth inhibition (TGI, %)", "setting": "[3]; 10 mg/kg, oral, once a day for 4 weeks", "result": "58.5 ± 9.1", "unit": "%"}, {"measurement": "tumor growth inhibitory efficacy", "setting": "[3]; compared with positive control 1 and positive control 2, FIG. 8", "result": "high tumor growth inhibitory efficacy"}, {"measurement": "cell death rate", "setting": "SW620; SW620 (KRAS G12V/mRON Δ155), FIG. 2", "result": "high cell death rate"}, {"measurement": "cell death induction efficacy", "setting": "SW620; SW620 with a RON mutation, FIG. 1", "result": "cell death induction efficacy was exhibited regardless of mutation type"}, {"measurement": "expression of cleaved caspase 3 in tumor tissue", "setting": "[4]; FIG. 13", "result": "induced expression"}, {"measurement": "expression of cyclin D1 (PD marker) in tumor tissue", "setting": "[4]; FIG. 13", "result": "decreased expression"}, {"measurement": "expression of pTyr-mRON in tumor tissue", "setting": "[4]; FIG. 13", "result": "decreased expression"}, {"measurement": "tumor growth inhibitory efficacy", "setting": "[4]; oral, once a day for 4 weeks, FIG. 12", "result": "high tumor growth inhibitory efficacy"}, {"measurement": "IC50", "setting": "HCT8 [5]", "result": 0.42, "unit": "µM"}, {"measurement": "IC50", "setting": "HCT15", "result": 0.23, "unit": "µM"}, {"measurement": "cell death induction efficacy", "setting": "T84 [6]", "result": "cell death induction efficacy was exhibited regardless of mutation type"}, {"measurement": "cell death induction efficacy", "setting": "HCT8 [7]", "result": "cell-killing efficacy was exhibited"}]}]}
